Values quoted from earlier work, collected in US20220273584A1, “Film Formulation Comprising Carriers” (Klaria Pharma Holding AB, priority 2019, published 2022).

Conditions: at a concentration of 1-10%

For `CCCCCCCC/C=C\CCCCCCCC(=O)O` [Oleic acid, oleic acid], the “permeability with porcine buccal epithelium” value is listed as “enhanced permeability”.
